Data reported in ChEMBL document CHEMBL3351440, “Synthesis of diethylamino-curcumin mimics with substituted triazolyl groups and their sensitization effect of TRAIL against brain cancer cells” (2014).
Calls of active or inactive are those of the source. The rule behind the calls is not given here.

Key:
[1] = Induction of apoptosis in human CRT-MG cells assessed as cell death at 10 uM after 24 hrs by LDH release assay; type: functional
[2] = tested on: CRT-MG; assay: (§1) Induction of TRAIL-mediated human CRT-MG cell death at 10 uM after 24 hrs by LDH release assay relative to control; type: functional
[3] = (§2) Cytotoxicity against TRAIL-induced human CRT-MG cells at 50 uM after 24 hrs; type: functional
[4] = tested on: CRT-MG; assay: as §2; type: functional
[5] = as §1; type: functional
[6] = tested on: LNCaP; assay: Cytotoxicity against TRAIL-induced human LNCAP cells assessed as caspase 3 activity at 10 uM after 48 hrs by MTS colorimetric assay relative to control; type: functional
[7] = Cytotoxicity against TRAIL-induced human U251MG cells assessed as cleavage of procaspase 3/8 at 10 uM after 48 hrs by MTS colorimetric assay; type: functional, U-251
[8] = Cytotoxicity against TRAIL-induced human U87MG cells assessed as cleavage of procaspase 3/8 at 10 uM after 48 hrs by MTS colorimetric assay; type: functional, U-87MG ATCC
[9] = Induction of apoptosis in human CRT-MG cells assessed as inhibition of cell proliferation at 10 uM after 24 hrs; type: functional

With `CCCCCc1ccc(-c2cn(-c3cccc(C(=O)/C=C/c4ccc(N(CC)CC)cc4)c3)nn2)cc1` the Activity [1] was under 20% and the Activity [2] was “Active”.
In the case of `CCN(CC)c1ccc(/C=C/C(=O)c2cccc(-n3cc(-c4cccc(Cl)c4)nn3)c2)cc1`, the Activity [1] is reported as under 20% and the Activity [2] is reported as “Active”.
In the case of `CCN(CC)c1ccc(/C=C/C(=O)c2cccc(-n3cc(-c4ccc(F)cc4)nn3)c2)cc1`, the Activity [1] is reported as under 20% and the Activity [2] is reported as “Active”.
With `CCN(CC)c1ccc(/C=C/C(=O)c2cccc(-n3cc(-c4ccc(OC)cc4)nn3)c2)cc1` the Activity [1] was under 20% and the Activity [2] was “Active”.
With `C=C(C)c1cn(-c2cccc(C(=O)/C=C/c3ccc(N(CC)CC)cc3)c2)nn1` the Activity [1] was under 20% and the Activity [2] was “Active”.
For `CCN(CC)c1ccc(/C=C/C(=O)c2cccc(-n3cc(-c4ccc(Br)cc4)nn3)c2)cc1`, the Activity [3] was under 20% and the Activity [2] was “Active”.
In the case of `CCN(CC)c1ccc(/C=C/C(=O)c2cccc(-n3cc(-c4ccccc4)nn3)c2)cc1`, the Activity [4] is reported as “Active”, the Activity [1] is reported as 14.3% and the “fold change (FC)” value [5] is reported as 2.5.
Molecule `COc1cc(/C=C/C(=O)CC(=O)/C=C/c2ccc(O)c(OC)c2)ccc1O` [CURCUMIN] has a Ratio [6] of 2, an Activity [7] of 60% and an Activity [8] of 45%.
For `CCN(CC)c1ccc(/C=C/C(=O)c2cccc(N=[N+]=[N-])c2)cc1`, the Activity [1] was 27.8%, the inhibition at 10 µM [9] was 55.6% and the Activity [5] was 78.3%.
In the case of `CCN(CC)c1ccc(/C=C/C(=O)c2cccc(-n3cc(-c4ccccc4C(F)(F)F)nn3)c2)cc1`, the Activity [4] is reported as “Active”, the Activity [1] is reported as under 20% and the Activity [2] is reported as “Active”.
With `CCN(CC)c1ccc(/C=C/C(=O)c2cccc(-n3cc(-c4ccc(C)cc4)nn3)c2)cc1` the Activity [1] was under 20% and the Activity [2] was “Active”.
With `CCN(CC)c1ccc(/C=C/C(=O)c2cccc(-n3cc(C(C)(C)O)nn3)c2)cc1` the Activity [3] was under 20%, the Activity [1] was 13.3% and the “fold change (FC)” value [5] was 2.5.
With `CCN(CC)c1ccc(/C=C/C(=O)c2cccc(-n3cc(-c4cc(F)cc(F)c4)nn3)c2)cc1` the Activity [1] was under 20%.
